Test results as given in ChEMBL document CHEMBL1201862, “PubChem BioAssay data set” (2004).
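Briefly, cells in 96-well plates were exposed to five compound concentrations for 48 h, and endpoints were estimated by linear interpolation. The concentration for 50% growth inhibition is given as GI50.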 Activity calls are given as the source filed them. Cut-off read from the data, not from the text of the source: active = GI50 up to about 1.1 µM and inactive = higher.

Key:
Experiment in all cases: inhibition of tumour cell growth, NCI panel, 48 h
MDA-N = test system: MDA-N
SNB-75 = test system: SNB-75
SF-268 = test system: SF-268
MDA-MB-231 = test system: MDA-MB-231
NCI-H460 = test system: NCI-H460
NCI-H522 = test system: NCI-H522
SF-539 = test system: SF-539
UACC-62 = test system: UACC-62
786-0 = test system: 786-0
ACHN = test system: ACHN
EKVX = test system: EKVX
Malme-3M = test system: Malme-3M
HT-29 = test system: HT-29
COLO 205 = test system: COLO 205
A498 = test system: A498
A549 = test system: A549
LOX IMVI = test system: LOX IMVI
MCF7 = test system: MCF7
OVCAR-8 = test system: OVCAR-8
HCC 2998 = test system: HCC 2998

SMILES	GI50 (MDA-N)	GI50 (SNB-75)	GI50 (SF-268)	GI50 (MDA-MB-231)	GI50 (NCI-H460)	GI50 (NCI-H522)	GI50 (SF-539)	GI50 (UACC-62)	GI50 (786-0)	GI50 (ACHN)	GI50 (EKVX)	GI50 (Malme-3M)	GI50 (HT-29)	GI50 (COLO 205)	GI50 (A498)	GI50 (A549)	GI50 (LOX IMVI)	GI50 (MCF7)	GI50 (OVCAR-8)	GI50 (HCC 2998)
CSc1nc2ccccc2c(=O)n1/N=C1\C(=O)N(CN2CCOCC2)c2ccc(Cl)cc21	31.8 µM (inactive)	41.5 µM (inactive)	36.9 µM (inactive)	47.4 µM (inactive)	15.2 µM (inactive)	31.1 µM (inactive)	26.7 µM (inactive)	6.68 µM (inactive)	34.8 µM (inactive)	26.1 µM (inactive)	2.6 µM (inactive)	> 100 µM (inactive)	23.7 µM (inactive)	17.1 µM (inactive)	26.2 µM (inactive)	35.4 µM (inactive)	15.2 µM (inactive)	19.6 µM (inactive)	39.6 µM (inactive)	
Nc1ncnc2c1ncn2CC(OCP(=O)(O)O)Oc1ccccc1 (centres undefined)	> 100 µM (inactive)	> 100 µM (inactive)	> 100 µM (inactive)	> 100 µM (inactive)			> 100 µM (inactive)	> 100 µM (inactive)	> 100 µM (inactive)	> 100 µM (inactive)	> 100 µM (inactive)			> 100 µM (inactive)	> 100 µM (inactive)	> 100 µM (inactive)	> 100 µM (inactive)	> 100 µM (inactive)		> 100 µM (inactive)
O=[N+]([O-])/C(C(Cl)=C(Cl)Cl)=C(\Nc1cccc2cccnc12)Sc1ccccc1	43 µM (inactive)	23.7 µM (inactive)	17.9 µM (inactive)	18.2 µM (inactive)	34.4 µM (inactive)		20.8 µM (inactive)	11.1 µM (inactive)	20 µM (inactive)	22.8 µM (inactive)	27.4 µM (inactive)	23.1 µM (inactive)	23.4 µM (inactive)	17.1 µM (inactive)	20 µM (inactive)	29.9 µM (inactive)		20.8 µM (inactive)		78.2 µM (inactive)
CN(C)CCCNC(=O)c1cc2/c(=C\c3ccc(N(C)C)cc3)c3ccccc3n2[n+]1C	24.4 µM (inactive)		32.6 µM (inactive)	21.5 µM (inactive)	51.2 µM (inactive)	2.64 µM (inactive)	21.2 µM (inactive)	17.3 µM (inactive)	52.8 µM (inactive)	> 100 µM (inactive)	17.9 µM (inactive)	23.1 µM (inactive)	27.5 µM (inactive)	8.73 µM (inactive)	6.04 µM (inactive)	> 100 µM (inactive)	42 µM (inactive)	21.8 µM (inactive)	40.8 µM (inactive)	
Cc1cccc(Nc2nc(NNC(=O)Cc3ccccc3)nc(NNC(=O)c3ccncc3)n2)c1	> 10 µM (inactive)	> 10 µM (inactive)	> 10 µM (inactive)	> 10 µM (inactive)	> 10 µM (inactive)	> 10 µM (inactive)	> 10 µM (inactive)	> 10 µM (inactive)	> 10 µM (inactive)	> 10 µM (inactive)	> 10 µM (inactive)	> 10 µM (inactive)	> 10 µM (inactive)	> 10 µM (inactive)		> 10 µM (inactive)	> 10 µM (inactive)	> 10 µM (inactive)	> 10 µM (inactive)	> 10 µM (inactive)
O=C(O)CSc1ncccc1[N+](=O)[O-]	> 100 µM (inactive)	> 100 µM (inactive)	> 100 µM (inactive)	> 100 µM (inactive)	> 100 µM (inactive)	> 100 µM (inactive)	> 100 µM (inactive)	> 100 µM (inactive)	> 100 µM (inactive)	> 100 µM (inactive)	> 100 µM (inactive)	> 100 µM (inactive)	> 100 µM (inactive)	> 100 µM (inactive)	> 100 µM (inactive)	> 100 µM (inactive)	> 100 µM (inactive)	> 100 µM (inactive)	> 100 µM (inactive)	
O=c1cc(-c2ccccc2)[nH]c2cc(F)c(F)cc12	0.0764 µM (active)	0.274 µM (active)	1.45 µM (inactive)	1.44 µM (inactive)	0.565 µM (active)	0.385 µM (active)	0.342 µM (active)	0.322 µM (active)	0.238 µM (active)	0.676 µM (active)	11.5 µM (inactive)	> 69.5 µM (inactive)	0.998 µM (active)	0.661 µM (active)		0.463 µM (active)	0.494 µM (active)	0.323 µM (active)	0.824 µM (active)	5.11 µM (inactive)
CC1=C(C(=O)OC(C)C)C(c2ccccc2C(F)(F)F)C(C(=O)OC(CO[N+](=O)[O-])CO[N+](=O)[O-])=C(C)N1 (centres undefined)	4.61 µM (inactive)	2.21 µM (inactive)	8.63 µM (inactive)	12.3 µM (inactive)	5.19 µM (inactive)	3.35 µM (inactive)	9.48 µM (inactive)	3.99 µM (inactive)	2.87 µM (inactive)	4.79 µM (inactive)	13.3 µM (inactive)	12.2 µM (inactive)	5.79 µM (inactive)	10.2 µM (inactive)		3.92 µM (inactive)	4.61 µM (inactive)	4.22 µM (inactive)	8.13 µM (inactive)	21.6 µM (inactive)
CC1SCCc2nc3ccccc3n21 (centres undefined)	> 100 µM (inactive)	> 100 µM (inactive)	> 100 µM (inactive)	> 100 µM (inactive)	> 100 µM (inactive)		> 100 µM (inactive)	> 100 µM (inactive)	> 100 µM (inactive)		> 100 µM (inactive)		> 100 µM (inactive)	> 100 µM (inactive)	> 100 µM (inactive)	> 100 µM (inactive)	> 100 µM (inactive)	> 100 µM (inactive)	> 100 µM (inactive)	> 100 µM (inactive)
Cc1cccc(/C=N/NC(=S)Nc2ccc(Cl)cc2)n1	0.308 µM (active)	0.741 µM (active)	2.61 µM (inactive)	0.897 µM (active)	0.635 µM (active)	0.177 µM (active)	2.52 µM (inactive)	0.643 µM (active)	1.63 µM (inactive)	1.12 µM (active)	2.41 µM (inactive)	0.665 µM (active)	1.03 µM (active)	0.658 µM (active)		1.93 µM (inactive)	1.04 µM (active)	0.607 µM (active)	3.74 µM (inactive)	7.8 µM (inactive)
CCCCCCSc1nc(COC(=O)NC)c(COC(=O)NC)n1C	> 100 µM (inactive)	> 100 µM (inactive)	> 100 µM (inactive)	> 100 µM (inactive)	> 100 µM (inactive)	> 100 µM (inactive)	> 100 µM (inactive)	> 100 µM (inactive)	> 100 µM (inactive)	> 100 µM (inactive)	> 100 µM (inactive)		> 100 µM (inactive)	> 100 µM (inactive)	> 100 µM (inactive)	> 100 µM (inactive)	> 100 µM (inactive)	> 100 µM (inactive)	> 100 µM (inactive)	
